{
  "source": "patent US20210046097A1",
  "about": "“NEUTRAL ENDOPEPTIDASE (NEP) AND HUMAN SOLUBLE ENDOPEPTIDASE (hSEP) INHIBITORS FOR PROPHYLAXIS AND TREATMENT OF EYE DISEASES” (FORTY-FOUR PHARMACEUTICALS SP. Z.O.O, priority 2018, published 2021)",
  "key": {"[1]": {"tested_on": "doxorubicin-induced apoptosis in retinal ganglion cells", "assay": "Doxorubicin-induced apoptosis in rat retinal ganglion cells (intravitreal doxorubicin, TUNEL staining, stereological disector)", "assay_type": "in vivo", "text": "(§1) Apoptosis is a significant component of cell death in optic and/or eye diseases including (i) all forms of primary and secondary glaucoma, preferably such as e.g. primary open-angle glaucoma, normal-tension glaucoma, primary angle-closure glaucoma, pseudoexfoliation syndrome and glaucoma, pigment dispersion syndrome and glaucoma, neovascular glaucoma, inflammatory glaucoma, lens-related glaucoma, traumatic glaucoma, primary congenital glaucoma, iatrogenic induced glaucoma, and malignant glaucoma (R. Agarwal, S. K. Gupta, P. Agarwal, R. Saxena & S. S. Agrawal (2009) Indian J. Ophthalmol. 57, 257-266); (ii) aquired macular disorders, preferably such as e.g. age-related macular degeneration, idiopathic choroidal neovascularisation, central serous chorioretinopathy, vitreomacular interface disorders, idiopathic macular telangiectasia, cystoid macular oedema, and microcystic macular oedema (J. L. Dunaief, T. Dentchev, G.-S. Ying & A. H. Milam (2002) Arch. Ophthalmol. 120, 1435-1442); (iii) optic neuropathy, preferably such as e.g. anterior or posterior ischemic optic neuropathy (B. J. Slater, Z. Mehrabian, Y. Guo, A. Hunter & S. L. Bernstein (2008) Invest. Ophthalmol. Vis. Sci. 49, 3671-3676); (iv) optic neuritis (K. S. Shindler, E. Ventura, M. Dutt & A. Rostami (2008) Exp.Eye Res. 87, 208-213); (v) uveitis, preferably such as e.g. anterior uveitis, intermediate uveitis, posterior uveitis, and panuveitis (C.-C. Chan, D. M. Matteson, Q. Li, S. M. Whitcup & R. B. Nussenblatt (1997) Arch. Ophthalmol. 115, 1559-1567); (vi) hereditary fundus dystrophies, preferably such as e.g. retinitis pigmentosa, cone dystrophy, cone-rod dystrophy, rod dystrophy, Stargardt's disease, Bietti's crystalline corneoretinal dystrophy, familial benign fleck retina, Best vitelliform macular dystrophy, adult-onset vitelliform macular dystrophy, North Carolina macular dystrophy, familial dominant drusen, and concentric annular macular dystrophy (H. Zhang, X. Li, X. Dai, J. Han, Y. Zhang, Y. Qi, Y. He, Y. Liu, B. Chang & J. J. Pang (2017) J. Ophthalmol. 2017, 1-13 9721362); (vii) retinal vascular diseases, preferably such as e.g. diabetic retinopathy, non-diabetic retinopathy, retinal venous occlusive disease, retinal arterial occlusive disease, ocular ischemic syndrome, hypertensive eye disease, sickle cell retinopathy, thalassemia retinopathy, retinopathy of prematurity, retinal artery macroaneurysm, primary retinal telangiectasia, Eales disease, and radiation retinopathy (G. Donati, A. Kapetanios, M. Dubois-Dauphin & C. J. Pournaras (2008) Acta Ophthalmol. 86, 302-306); (viii) scleritis or episcleritis (C. Heinz, N. Bograd, J. Koch & A. Heiligenhaus (2013) Graefes Arch. Clin. Exp. Ophthalmol. 251, 139-142); (ix) retinal detachments (J. G. Arroyo, L. Yang, D. Bula & D. F. Chen (2005) Am. […]"}, "[2]": {"tested_on": "doxorubicin-induced apoptosis in the liver", "assay": "Doxorubicin-induced apoptosis in rat liver (TUNEL staining, stereological disector)", "assay_type": "in vivo", "text": "as §1"}, "[3]": {"details": "60 mg/kg/d s.c., result in words"}, "[4]": {"details": "vs doxorubicin + vehicle, 60 mg/kg/d s.c."}},
  "data": [
    {"smiles": "O=C(O)CN1C(=O)[C@@H](NC(=O)C2(C[C@@H](CCc3ccccc3)C(=O)O)CCCC2)CCc2ccccc21", "note": "[Example (6), (2R)-2-{[1-({[(3S)-1-(carboxymethyl)-2-oxo-2,3,4,5-tetrahydro-1H-1-benzazepin-3-yl]amino}carbonyl)cyclopentyl]methyl}-4-phenylbutanoic acid]", "values": [
      {"measurement": "Protection against doxorubicin induced apoptosis in the retina (reduction of Nv of TUNEL positive cells vs vehicle)", "setting": "[1]; [3]", "result": "significant protection"},
      {"measurement": "Nv, number of TUNEL positive cells, retinal ganglion cells (RGC)", "setting": "[1]; Wistar rats, 60 mg/kg/d s.c. osmotic minipump, doxorubicin 5 μg into vitreous body day 1, 5 days after, mean ± SEM", "result": "33.64 ± 0.96 TUNEL positive cells×10^3/mm^3"},
      {"measurement": "Nv as % of doxorubicin + vehicle, RGC", "setting": "[1]; Wistar rats, 60 mg/kg/d s.c. osmotic minipump, doxorubicin 5 μg into vitreous body day 1, day 5", "result": 91.79, "unit": "%"},
      {"measurement": "Decrease of density of apoptotic cells in the retina", "setting": "[1]; [4]", "result": 8.21, "unit": "%"},
      {"measurement": "Protection against doxorubicin induced apoptosis in the liver (reduction of Nv of TUNEL positive cells vs vehicle)", "setting": "[2]; [3]", "result": "significant protection"},
      {"measurement": "Nv, number of TUNEL positive cells, liver", "setting": "[2]; Wistar rats, 60 mg/kg/d s.c. osmotic minipump, doxorubicin 5 mg/kg i.p. t.i.d. days 1-3, 5 days after first injection, mean ± SEM", "result": "7.93 ± 0.25 TUNEL positive cells×10^2/mm^3"},
      {"measurement": "Nv as % of doxorubicin + vehicle, liver", "setting": "[2]; Wistar rats, 60 mg/kg/d s.c. osmotic minipump, doxorubicin 5 mg/kg i.p. t.i.d. days 1-3, day 5", "result": 76.54, "unit": "%"},
      {"measurement": "Decrease of density of apoptotic cells in the rat liver", "setting": "[2]; [4]", "result": 23.46, "unit": "%"}
    ]}
  ]
}
